Assay: Stability test at 5° C. in a sealed package after 6 and 12 months (impurity content)
Format: physicochemical
Details: external 20% humidity, % of the total weight of the composition
Description: The compositions as gelatin capsules are housed in a sealed package (T0) and stored at 5° C. with an external 20% humidity rate. Next, the impurity content (in % of the total weight of the composition) is dosed after 6 and 12 months (T6 and T12 respectively) and compared to that dosed beforehand at T0. The difference between the percentages at T6 and T0 and then T12 and T0 indicate the change in the impurity content.
It is compared with that obtained for freeze-dried vinorelbine ditartrate stored under the same conditions.
This operating procedure was applied in the following Examples 2 to 5.

Change in impurity content T0 to T12: T0 to T12: +0.79%
Compound: CCC1=C[C@@H]2CN(C1)Cc1c([nH]c3ccccc13)[C@@](C(=O)OC)(c1cc3c(cc1OC)N(C)[C@H]1[C@@](O)(C(=O)OC)[C@H](OC(C)=O)[C@]4(CC)C=CCN5CC[C@]31[C@@H]54)C2 [Vinorelbine ditartrate, vinorelbine ditartrate]

Reference: patent publication US20100196465A1, “STABLE PHARMACEUTICAL COMPOSITION OF A WATER-SOLUBLE VINORELBINE SALT” (Pierre Fabre Medicament, priority 2007, published 2010)
